Patent US12473290B2, “Imidazopyridazine compounds useful as modulators of IL-12, IL-23 and/or IFN alpha responses” (BRISTOL-MYERS SQUIBB COMPANY, priority 2019, dated 2025)

Key:
Assay type in all cases: cell-based
[1] = test system: IL-23 Kit225 Reporter (Kit225 T cells with a stably-integrated STAT-dependent luciferase reporter, stimulated with IL-23); assay: Kit225 T Cell Assay, IL-23-stimulated STAT-dependent luciferase reporter; conditions: 20 ng/mL human recombinant IL-23, 5-6 hours, luciferase expression
Description: (§1) Kit225 T cells with a stably-integrated STAT-dependent luciferase reporter were plated in RPMI (Gibco) containing 10% heat-inactivated FBS (Gibco) and 100 U/mL PenStrep (Gibco). The cells were then stimulated with either 20 ng/mL human recombinant IL-23 or 200 U/mL human recombinant IFNα (PBL InterferonSource) for 5-6 hours. Luciferase expression was measured using the STEADY-GLO® Luciferase Assay System (Promega) according to the manufacturer's instructions. Inhibition data were calculated by comparison to no inhibitor control wells for 0% inhibition and non-stimulated control wells for 100% inhibition. Dose response curves were generated to determine the concentration required to inhibit 50% of cellular response (IC50) as derived by non-linear regression analysis.

[2] = test system: IFNα Kit225 Reporter (Kit225 T cells with a stably-integrated STAT-dependent luciferase reporter, stimulated with IFNα); assay: Kit225 T Cell Assay, IFNα-stimulated STAT-dependent luciferase reporter; conditions: 200 U/mL human recombinant IFNα, 5-6 hours, luciferase expression
Description: as §1

[3] = Kit225 T Cell Assay, IL-23-stimulated STAT-dependent luciferase reporter; conditions: Kit225 T cells, 20 ng/mL human recombinant IL-23, 5-6 hours, luciferase expression
Description: as §1

Row | IC50 [2] | IC50 [3] | SMILES | IC50 [1]
1 | 160 nM | 150 nM | N#Cc1cnc2c(Nc3ccc(C(=O)NCC4CC4)cn3)cc(NCC3CC3)nn12 [Example 51, 6-({3-cyano-6-[(cyclopropylmethyl)amino]imidazo[1,2-b]pyridazin-8-yl}amino)-N-(cyclopropylmethyl)pyridine-3-carboxamide] | 
2 | 80 nM | 140 nM | CC(C)(C)NC(=O)c1ccc(Nc2cc(NCC3CC3)nn3c(C#N)cnc23)nc1 [Example 52, N-tert-butyl-6-({3-cyano-6-[(cyclopropylmethyl)amino]imidazo[1,2-b]pyridazin-8-yl}amino)pyridine-3-carboxamide] | 
3 | 140 nM | 240 nM | N#Cc1cnc2c(Nc3ccc(C(=O)N[C@@H]4CCC[C@@H]4O)cn3)cc(NCC3CC3)nn12 [Example 53, 6-({3-cyano-6-[(cyclopropylmethyl)amino]imidazo[1,2-b]pyridazin-8-yl}amino)-N-[(1R,2S)-2-hydroxycyclopentyl]pyridine-3-carboxamide] | 
4 | 880 nM | 630 nM | CC(C)N1CCN(c2cccc(Nc3cc(N[C@@H]4CCCC[C@H]4O)nn4c(C#N)cnc34)n2)CC1 [Example 54, 6-{[(1R,2R)-2-hydroxycyclohexyl]amino}-8-({6-[4-(propan-2-yl)piperazin-1-yl]pyridin-2-yl}amino)imidazo[1,2-b]pyridazine-3-carbonitrile] | 
5 | 620 nM | 530 nM | N#Cc1cnc2c(Nc3cccc(N4CCN(CCO)CC4)n3)cc(N[C@@H]3CCCC[C@H]3O)nn12 [Example 55, 6-{[(1R,2R)-2-hydroxycyclohexyl]amino}-8-({6-[4-(2-hydroxyethyl)piperazin-1-yl]pyridin-2-yl}amino)imidazo[1,2-b]pyridazine-3-carbonitrile] | 
6 | 380 nM | 430 nM | N#Cc1cnc2c(Nc3cccc(N4CCOCC4=O)n3)cc(N[C@@H]3CCCC[C@H]3O)nn12 [Example 56, 6-{[(1R,2R)-2-hydroxycyclohexyl]amino}-8-{[6-(3-oxomorpholin-4-yl)pyridin-2-yl]amino}imidazo[1,2-b]pyridazine-3-carbonitrile] | 
7 | 750 nM | 920 nM | CCC1(C)NC(=O)N(c2cccc(Nc3cc(N[C@@H]4CCCC[C@H]4O)nn4c(C#N)cnc34)n2)C1=O (stereo partly drawn) [Example 57, 8-{[6-(4-ethyl-4-methyl-2,5-dioxoimidazolidin-1-yl)pyridin-2-yl]amino}-6-{[(1R,2R)-2-hydroxycyclohexyl]amino}imidazo[1,2-b]pyridazine-3-carbonitrile] | 
8 | 810 nM | 550 nM | N#Cc1cnc2c(Nc3cccc(N4C(=O)NC5(CCCCC5)C4=O)n3)cc(N[C@@H]3CCCC[C@H]3O)nn12 [Example 58, 8-[(6-{2,4-dioxo-1,3-diazaspiro[4.5]decan-3-yl}pyridin-2-yl)amino]-6-{[(1R,2R)-2-hydroxycyclohexyl]amino}imidazo[1,2-b]pyridazine-3-carbonitrile] | 
9 | 930 nM | 660 nM | N#Cc1cnc2c(Nc3cccc(N4CCCCCC4=O)n3)cc(N[C@@H]3CCCC[C@H]3O)nn12 [Example 59, 6-{[(1R,2R)-2-hydroxycyclohexyl]amino}-8-{[6-(2-oxoazepan-1-yl)pyridin-2-yl]amino}imidazo[1,2-b]pyridazine-3-carbonitrile] | 
10 | 370 nM | 350 nM | CC(C)C(=O)N1CCN(c2cccc(Nc3cc(N[C@@H]4CCCC[C@H]4O)nn4c(C#N)cnc34)n2)CC1 [Example 60, 6-{[(1R,2R)-2-hydroxycyclohexyl]amino}-8-({6-[4-(2-methylpropanoyl)piperazin-1-yl]pyridin-2-yl}amino)imidazo[1,2-b]pyridazine-3-carbonitrile] | 
11 | 450 nM | 940 nM | N#Cc1cnc2c(Nc3cccc(-n4cccn4)n3)cc(N[C@@H]3CCCC[C@H]3O)nn12 [Example 61, 6-{[(1R,2R)-2-hydroxycyclohexyl]amino}-8-{[6-(1H-pyrazol-1-yl)pyridin-2-yl]amino}imidazo[1,2-b]pyridazine-3-carbonitrile] | 
12 | 200 nM | 290 nM | CN1CCN(c2cccc(Nc3cc(N[C@@H]4CCCC[C@H]4O)nn4c(C#N)cnc34)n2)CC1 [Example 62, 6-{[(1R,2R)-2-hydroxycyclohexyl]amino}-8-{[6-(4-methylpiperazin-1-yl)pyridin-2-yl]amino}imidazo[1,2-b]pyridazine-3-carbonitrile] | 
13 | 550 nM | 110 nM | CS(=O)(=O)N1CCN(c2cccc(Nc3cc(N[C@@H]4CCCC[C@H]4O)nn4c(C#N)cnc34)n2)CC1 [Example 63, 6-{[(1R,2R)-2-hydroxycyclohexyl]amino}-8-{[6-(4-methanesulfonylpiperazin-1-yl)pyridin-2-yl]amino}imidazo[1,2-b]pyridazine-3-carbonitrile] | 
14 | 500 nM | 350 nM | CC(=O)N1CCN(c2cccc(Nc3cc(N[C@@H]4CCCC[C@H]4O)nn4c(C#N)cnc34)n2)CC1 [Example 64, 8-{[6-(4-acetylpiperazin-1-yl)pyridin-2-yl]amino}-6-{[(1R,2R)-2-hydroxycyclohexyl]amino}imidazo[1,2-b]pyridazine-3-carbonitrile] | 
15 | 110 nM | 550 nM | N#Cc1cnc2c(Nc3cccc(N4CCOCC4)n3)cc(N[C@@H]3CCCC[C@H]3O)nn12 [Example 65, 6-{[(1R,2R)-2-hydroxycyclohexyl]amino}-8-{[6-(morpholin-4-yl)pyridin-2-yl]amino}imidazo[1,2-b]pyridazine-3-carbonitrile] | 
16 | 340 nM | 710 nM | N#Cc1cnc2c(Nc3cccc(N)n3)cc(N[C@@H]3CCCC[C@H]3O)nn12 [Example 66, 8-[(6-aminopyridin-2-yl)amino]-6-{[(1R,2R)-2-hydroxycyclohexyl]amino}imidazo[1,2-b]pyridazine-3-carbonitrile] | 

Row | SMILES | IC50 [2] | IC50 [3] | IC50 [1]
17 | N#Cc1cnc2c(Nc3ccc(C(=O)N4[C@H]5CC[C@@H]4CC5)c(OCC(F)F)n3)cc(NC3CCOCC3)nn12 [Example 46, 8-{[6-(2,2-difluoroethoxy)-5-[(1s,4s)-7-azabicyclo[2.2.1]heptane-7-carbonyl]pyridin-2-yl]amino}-6-[(oxan-4-yl)amino]imidazo[1,2-b]pyridazine-3-carbonitrile] | 360 nM |  | 60 nM
